Test results taken from PubChem BioAssay (NCI).
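Protocol summary: plate cells (96-well), add compound at 5 concentrations, incubate 48 h, interpolate endpoints linearly. The concentration for full growth arrest is given as TGI.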

Key:
Assay in all cases: DTP human tumour cell line panel, 48 h
RPMI-8226 leukemia = test system: RPMI-8226 leukemia
SNB-19 CNS = test system: SNB-19 CNS
COLO 205 colon = test system: COLO 205 colon
NCI-H460 lung = test system: NCI-H460 lung
HCT-116 colon = test system: HCT-116 colon
OVCAR-8 ovarian = test system: OVCAR-8 ovarian
DMS 114 small cell lung = test system: DMS 114 small cell lung
MALME-3M melanoma = test system: MALME-3M melanoma
SNB-78 CNS = test system: SNB-78 CNS
NCI-H522 lung = test system: NCI-H522 lung
UO-31 renal = test system: UO-31 renal
U251 CNS = test system: U251 CNS
HOP-62 NSCLC = test system: HOP-62 NSCLC
EKVX NSCLC = test system: EKVX NSCLC
IGROV1 ovarian = test system: IGROV1 ovarian
SK-MEL-2 melanoma = test system: SK-MEL-2 melanoma
RXF 393 renal = test system: RXF 393 renal
SW-620 colon = test system: SW-620 colon
ACHN renal = test system: ACHN renal
HL-60(TB) leukemia = test system: HL-60(TB) leukemia
KM12 colon = test system: KM12 colon
SK-MEL-5 melanoma = test system: SK-MEL-5 melanoma
HOP-18 NSCLC = test system: HOP-18 NSCLC
SK-OV-3 ovarian = test system: SK-OV-3 ovarian
M19-MEL melanoma = test system: M19-MEL melanoma
XF 498 CNS = test system: XF 498 CNS
DLD-1 colon = test system: DLD-1 colon
HOP-92 NSCLC = test system: HOP-92 NSCLC
KM20L2 colon = test system: KM20L2 colon
K-562 leukemia = test system: K-562 leukemia
LXFL 529 NSCLC = test system: LXFL 529 NSCLC
HT29 colon = test system: HT29 colon
M14 melanoma = test system: M14 melanoma
UACC-257 melanoma = test system: UACC-257 melanoma
SF-268 CNS = test system: SF-268 CNS
NCI-H23 lung = test system: NCI-H23 lung
SF-539 CNS = test system: SF-539 CNS
CCRF-CEM leukemia = test system: CCRF-CEM leukemia
786-0 renal = test system: 786-0 renal
MOLT-4 leukemia = test system: MOLT-4 leukemia
LOX IMVI melanoma = test system: LOX IMVI melanoma
OVCAR-3 ovarian = test system: OVCAR-3 ovarian
SN12C renal = test system: SN12C renal
SNB-75 CNS = test system: SNB-75 CNS
HCC-2998 colon = test system: HCC-2998 colon
A549 NSCLC = test system: A549 NSCLC
TK-10 renal = test system: TK-10 renal
NCI-H226 lung = test system: NCI-H226 lung
DMS 273 small cell lung = test system: DMS 273 small cell lung
SF-295 CNS = test system: SF-295 CNS
UACC-62 melanoma = test system: UACC-62 melanoma
SK-MEL-28 melanoma = test system: SK-MEL-28 melanoma
OVCAR-5 ovarian = test system: OVCAR-5 ovarian
A498 renal = test system: A498 renal
CAKI-1 renal = test system: CAKI-1 renal
OVCAR-4 ovarian = test system: OVCAR-4 ovarian
HCT-15 colon = test system: HCT-15 colon

C#C[C@]1(O)CCC2C3CCc4cc(Oc5nc(F)nc(-n6c(C)nc7cc8ccccc8cc76)n5)ccc4C3CCC21C (some centres not stated)
TGI (RPMI-8226 leukemia): > 100 µM
TGI (SNB-19 CNS): > 100 µM
TGI (COLO 205 colon): 45.8 µM
TGI (NCI-H460 lung): 65.9 µM
TGI (HCT-116 colon): > 100 µM
TGI (OVCAR-8 ovarian): > 100 µM
TGI (DMS 114 small cell lung): 53.8 µM
TGI (MALME-3M melanoma): > 100 µM
TGI (SNB-78 CNS): > 100 µM
TGI (NCI-H522 lung): > 100 µM
TGI (UO-31 renal): > 100 µM
TGI (U251 CNS): > 100 µM
TGI (HOP-62 NSCLC): > 100 µM
TGI (EKVX NSCLC): > 100 µM
TGI (IGROV1 ovarian): > 100 µM
TGI (SK-MEL-2 melanoma): > 100 µM
TGI (RXF 393 renal): > 100 µM
TGI (SW-620 colon): > 100 µM
TGI (ACHN renal): > 100 µM
TGI (HL-60(TB) leukemia): > 100 µM
TGI (KM12 colon): > 100 µM
TGI (SK-MEL-5 melanoma): > 100 µM
TGI (HOP-18 NSCLC): > 100 µM
TGI (SK-OV-3 ovarian): > 100 µM
TGI (M19-MEL melanoma): > 100 µM
TGI (XF 498 CNS): > 100 µM
TGI (DLD-1 colon): > 100 µM
TGI (HOP-92 NSCLC): > 100 µM
TGI (KM20L2 colon): > 100 µM
TGI (K-562 leukemia): > 100 µM
TGI (LXFL 529 NSCLC): > 100 µM
TGI (HT29 colon): > 100 µM
TGI (M14 melanoma): > 100 µM
TGI (UACC-257 melanoma): > 100 µM
TGI (SF-268 CNS): > 100 µM
TGI (NCI-H23 lung): > 100 µM
TGI (SF-539 CNS): > 100 µM
TGI (CCRF-CEM leukemia): > 100 µM
TGI (786-0 renal): > 100 µM
TGI (MOLT-4 leukemia): > 100 µM
TGI (LOX IMVI melanoma): > 100 µM
TGI (OVCAR-3 ovarian): > 100 µM
TGI (SN12C renal): > 100 µM
TGI (SNB-75 CNS): > 100 µM
TGI (HCC-2998 colon): > 100 µM
TGI (A549 NSCLC): > 100 µM
TGI (TK-10 renal): > 100 µM
TGI (NCI-H226 lung): > 100 µM
TGI (DMS 273 small cell lung): > 100 µM
TGI (SF-295 CNS): > 100 µM
TGI (UACC-62 melanoma): > 100 µM

Cc1cc(C)nc(NS(=O)(=O)c2ccc(NC(=O)c3cccc4c(Nc5ccc(S(=O)(=O)Nc6nc(C)cc(C)n6)cc5)c5ccc(Cl)cc5nc34)cc2)n1
TGI (SK-MEL-28 melanoma): > 100 µM
TGI (RPMI-8226 leukemia): 91.9 µM
TGI (SNB-19 CNS): > 100 µM
TGI (COLO 205 colon): > 100 µM
TGI (NCI-H460 lung): > 100 µM
TGI (HCT-116 colon): > 100 µM
TGI (OVCAR-8 ovarian): > 100 µM
TGI (DMS 114 small cell lung): 79.8 µM
TGI (MALME-3M melanoma): 50.3 µM
TGI (SNB-78 CNS): > 100 µM
TGI (NCI-H522 lung): 54.7 µM
TGI (UO-31 renal): 82 µM
TGI (OVCAR-5 ovarian): > 100 µM
TGI (U251 CNS): > 100 µM
TGI (A498 renal): > 100 µM
TGI (HOP-62 NSCLC): 71.9 µM
TGI (EKVX NSCLC): > 100 µM
TGI (IGROV1 ovarian): > 100 µM
TGI (SK-MEL-2 melanoma): > 100 µM
TGI (RXF 393 renal): > 100 µM
TGI (SW-620 colon): > 100 µM
TGI (ACHN renal): > 100 µM
TGI (KM12 colon): > 100 µM
TGI (CAKI-1 renal): 77.1 µM
TGI (SK-MEL-5 melanoma): 42.7 µM
TGI (HOP-18 NSCLC): > 100 µM
TGI (OVCAR-4 ovarian): > 100 µM
TGI (SK-OV-3 ovarian): 77.1 µM
TGI (M19-MEL melanoma): > 100 µM
TGI (XF 498 CNS): 59.8 µM
TGI (DLD-1 colon): > 100 µM
TGI (HOP-92 NSCLC): 62.6 µM
TGI (KM20L2 colon): > 100 µM
TGI (K-562 leukemia): 88.6 µM
TGI (LXFL 529 NSCLC): > 100 µM
TGI (HT29 colon): > 100 µM
TGI (M14 melanoma): > 100 µM
TGI (UACC-257 melanoma): 62.9 µM
TGI (SF-268 CNS): > 100 µM
TGI (NCI-H23 lung): > 100 µM
TGI (SF-539 CNS): > 100 µM
TGI (CCRF-CEM leukemia): 79.8 µM
TGI (HCT-15 colon): > 100 µM
TGI (786-0 renal): > 100 µM
TGI (MOLT-4 leukemia): > 100 µM
TGI (LOX IMVI melanoma): > 100 µM
TGI (OVCAR-3 ovarian): 58.3 µM
TGI (SN12C renal): > 100 µM
TGI (SNB-75 CNS): 67.9 µM
TGI (HCC-2998 colon): > 100 µM
TGI (A549 NSCLC): > 100 µM
TGI (TK-10 renal): > 100 µM
TGI (DMS 273 small cell lung): > 100 µM
TGI (SF-295 CNS): > 100 µM
TGI (UACC-62 melanoma): 56.2 µM

CCOc1ccccc1N1C(=O)C(=O)C(c2nc3ccccc3s2)C(=O)C1=O
TGI (SK-MEL-28 melanoma): > 100 µM
TGI (RPMI-8226 leukemia): > 100 µM
TGI (SNB-19 CNS): > 100 µM
TGI (COLO 205 colon): > 100 µM
TGI (NCI-H460 lung): > 100 µM
TGI (HCT-116 colon): > 100 µM
TGI (OVCAR-8 ovarian): > 100 µM
TGI (DMS 114 small cell lung): > 100 µM
TGI (MALME-3M melanoma): > 100 µM
TGI (SNB-78 CNS): > 100 µM
TGI (UO-31 renal): > 100 µM
TGI (OVCAR-5 ovarian): > 100 µM
TGI (U251 CNS): > 100 µM
TGI (A498 renal): 39 µM
TGI (HOP-62 NSCLC): > 100 µM
TGI (EKVX NSCLC): > 100 µM
TGI (IGROV1 ovarian): > 100 µM
TGI (SK-MEL-2 melanoma): > 100 µM
TGI (RXF 393 renal): > 100 µM
TGI (SW-620 colon): > 100 µM
TGI (ACHN renal): 54 µM
TGI (KM12 colon): > 100 µM
TGI (CAKI-1 renal): > 100 µM
TGI (HOP-18 NSCLC): 69.8 µM
TGI (OVCAR-4 ovarian): 17.8 µM
TGI (SK-OV-3 ovarian): > 100 µM
TGI (M19-MEL melanoma): > 100 µM
TGI (XF 498 CNS): > 100 µM
TGI (DLD-1 colon): > 100 µM
TGI (HOP-92 NSCLC): > 100 µM
TGI (KM20L2 colon): > 100 µM
TGI (LXFL 529 NSCLC): > 100 µM
TGI (HT29 colon): > 100 µM
TGI (M14 melanoma): > 100 µM
TGI (UACC-257 melanoma): > 100 µM
TGI (SF-268 CNS): > 100 µM
TGI (NCI-H23 lung): > 100 µM
TGI (SF-539 CNS): > 100 µM
TGI (HCT-15 colon): > 100 µM
TGI (786-0 renal): 20.8 µM
TGI (LOX IMVI melanoma): > 100 µM
TGI (OVCAR-3 ovarian): 44.2 µM
TGI (SN12C renal): > 100 µM
TGI (SNB-75 CNS): > 100 µM
TGI (HCC-2998 colon): > 100 µM
TGI (A549 NSCLC): > 100 µM
TGI (TK-10 renal): > 100 µM
TGI (NCI-H226 lung): > 100 µM
TGI (DMS 273 small cell lung): > 100 µM
TGI (SF-295 CNS): > 100 µM
TGI (UACC-62 melanoma): > 100 µM
